# Assay results published in US12570639B2, “Tetrahydroquinoline derivative and medicinal use thereof” (Toray Industries, Inc., priority 2020, dated 2026).
# Structures can show the parent of a compound that is named as a salt.
# System: Human fibrosarcoma cells (HT-1080 cells)
# Assay: In vitro inhibitory action against ferroptosis (Erastin-induced cell death, Cell Counting Kit-8)
# Format: cell-based
# Details: Erastin 3 μmol/L, 24 hours
# Protocol: The inhibitory action against ferroptosis of the tetrahydroquinoline derivative (I) or a pharmaceutically acceptable salt thereof was evaluated with Human fibrosarcoma cells (HT-1080 cells), by using, as an index, the inhibitory action against the cell death induced by treatment with a ferroptosis inducer, Erastin.
# HT-1080 cells (ATCC) were cultured in a mixture (hereinafter referred to as vehicle) composed of DMEM/F12 (Thermo Fisher Scientific, Inc.), a final concentration of 10% fetal bovine serum (Thermo Fisher Scientific, Inc.), and a final concentration of 1% penicillin-streptomycin solution (Nacalai Tesque, Inc.). Cells were seeded into 96-well plates (Corning Inc.) at 5×10^4 cells/well and cultured overnight.
# A test compound was dissolved in DMSO, and the resulting solution was diluted in the vehicle to a final concentration of 1% DMSO and then used. […] Thirty minutes after the addition of the test compound, Erastin (Cayman Chemical Co.) diluted in the vehicle at a final concentration of 3 μmol/L was added to wells. The wells added with the test compound and Erastin were grouped as “test compound,” and the wells added with no test compound and no Erastin were grouped as “background,” and the wells added with no test compound but with Erastin were grouped as “control.” Twenty-four hours after the addition of Erastin, 5 μL of Cell Counting Kit-8 (Dojindo Laboratories) was added to each well and incubated for 4 hours, and the absorbance at 450 nm was then measured for each well (N=2). […] Ferroptosis inhibition rate (%)=[1−{(Average absorbance value at 450 nm measured when a test compound is added)−(Average absorbance value at 450 nm measured in the background)}/{(Average absorbance value at 450 nm measured in the control)−(Average absorbance value at 450 nm measured in the background)}]×100 Equation 1
# [1] = evaluation concentration 25 μmol/L
# [2] = evaluation concentration 30 μmol/L
# [3] = evaluation concentration 50 μmol/L
# [4] = evaluation concentration 10 μmol/L
Structure (SMILES),Ferroptosis inhibition rate (%) [2] [%],other results
"Nc1ccc2c(c1)CCC(c1ccccc1)N2 (stereo not shown) [Example 64, 2-phenyl-1,2,3,4-tetrahydroquinoline-6-amine dihydrochloride]",,Ferroptosis inhibition rate (%) [1]: 82.89%
"c1ccc2c(c1)CCC(c1cnco1)N2 (stereo not shown) [Example 65, 5-(1,2,3,4-tetrahydroquinolin-2-yl)oxazole]",89.25,
"Brc1ccc2c(c1)CCC(c1ccccc1)N2 (stereo not shown) [Example 70, 6-bromo-2-phenyl-1,2,3,4-tetrahydroquinoline]",97.10,
"OC1(c2ccc3c(c2)CCC(c2ccccc2)N3)COC1 (stereo not shown) [Example 71, 3-(2-phenyl-1,2,3,4-tetrahydroquinolin-6-yl)oxetan-3-ol]",108.9,
"c1ccc(C2CCc3cc(N4CCCCC4)ccc3N2)cc1 (stereo not shown) [Example 72, 2-phenyl-6-(piperidin-1-yl)-1,2,3,4-tetrahydroquinoline]",110.6,
"CC(=O)Nc1ccc2c(c1)CCC(c1ccccc1)N2 (stereo not shown) [Example 73, N-(2-phenyl-1,2,3,4-tetrahydroquinolin-6-yl)acetamide]",,Ferroptosis inhibition rate (%) [3]: 88.18%
"CC(C)(C)C(=O)Nc1ccc2c(c1)CCC(c1ccccc1)N2 (stereo not shown) [Example 74, N-(2-phenyl-1,2,3,4-tetrahydroquinolin-6-yl)pivalamide]",85.08,
"CS(=O)(=O)Nc1ccc2c(c1)CCC(c1ccccc1)N2 (stereo not shown) [Example 75, N-(2-phenyl-1,2,3,4-tetrahydroquinolin-6-yl)methanesulfonamide]",110.6,
"CC(C)(C)NC(=O)Nc1ccc2c(c1)CCC(c1ccccc1)N2 (stereo not shown) [Example 76, 1-(tert-butyl)-3-(2-phenyl-1,2,3,4-tetrahydroquinolin-6-yl)urea]",,Ferroptosis inhibition rate (%) [3]: 85.43%
"NC(=O)Nc1ccc2c(c1)CCC(c1ccccc1)N2 (stereo not shown) [Example 77, 1-(2-phenyl-1,2,3,4-tetrahydroquinolin-6-yl)urea]",101.6,
"CC(C)(C)CC(=O)Nc1ccc2c(c1)CCC(c1ccccc1)N2 (stereo not shown) [Example 78, 3,3-dimethyl-N-(2-phenyl-1,2,3,4-tetrahydroquinolin-6-yl)butanamide]",,Ferroptosis inhibition rate (%) [1]: 88.56%
"Clc1cccc2c1NC(c1ccccc1)CC2 (stereo not shown) [Example 79, 8-chloro-2-phenyl-1,2,3,4-tetrahydroquinoline]",104.4,
"Fc1cccc2c1NC(c1ccccc1)CC2 (stereo not shown) [Example 80, 8-fluoro-2-phenyl-1,2,3,4-tetrahydroquinoline]",103.9,
"FC(F)(F)c1ccc2c(c1)CCC(c1ccccc1)N2 (stereo not shown) [Example 84, 2-phenyl-6-(trifluoromethyl)-1,2,3,4-tetrahydroquinoline]",,Ferroptosis inhibition rate (%) [3]: 107.1%
"Fc1cc(F)c2c(c1)CCC(c1ccccc1)N2 (stereo not shown) [Example 86, 6,8-difluoro-2-phenyl-1,2,3,4-tetrahydroquinoline]",,Ferroptosis inhibition rate (%) [3]: 98.80%
"CC(C)(C)NC(=O)Nc1ccc2c(c1)CCC(c1ccc(C(N)=O)cc1)N2 (stereo not shown) [Example 87, 4-(6-(3-(tert-butyl)ureido)-1,2,3,4-tetrahydroquinolin-2-yl)benzamide]",,Ferroptosis inhibition rate (%) [3]: 95.20%
"CC1(c2ccccc2)CCc2ccccc2N1 (stereo not shown) [Example 91, 2-methyl-2-phenyl-1,2,3,4-tetrahydroquinoline]",105.2,
"OCC1(c2ccccc2)CCc2ccccc2N1 (stereo not shown) [Example 92, (2-phenyl-1,2,3,4-tetrahydroquinolin-2-yl)methanol]",66.40,
"COC(=O)C1(c2ccccc2)CCc2ccccc2N1 (stereo not shown) [Example 93, methyl 2-phenyl-1,2,3,4-tetrahydroquinoline-2-carboxylate]",89.78,

Structure (SMILES),Ferroptosis inhibition rate (%) [2] [%],other results
"COC(=O)CC1(c2ccccc2)CCc2ccccc2N1 (stereo not shown) [Example 94, 2-(2-phenyl-1,2,3,4-tetrahydroquinolin-2-yl)methyl acetate]",93.68,
"O=C1Cc2cc(C3CCc4cc(Cl)ccc4N3)ccc2N1 (stereo not shown) [Example 95, 5-(6-chloro-2,3,4,4-tetrahydroquinolin-2-yl)indolin-2-one]",68.84,
"Clc1ccc2c(c1)CCC(c1cn[nH]c1)N2 (stereo not shown) [Example 96, 6-chloro-2-(1H-pyrazol-4-yl)-1,2,3,4-tetrahydroquinoline]",98.01,
"Cc1ccc2c(c1)CCC(c1cn[nH]c1)N2 (stereo not shown) [Example 97, 6-methyl-2-(1H-pyrazol-4-yl)-1,2,3,4-tetrahydroquinoline]",83.94,
"Fc1ccc2c(c1)CCC(c1cn[nH]c1)N2 (stereo not shown) [Example 98, 6-fluoro-2-(1H-pyrazol-4-yl)-1,2,3,4-tetrahydroquinoline]",98.95,
"Cc1ccc2c(c1)CCC(c1ccc(S(N)(=O)=O)cc1)N2 (stereo not shown) [Example 100, 4-(6-methyl-1,2,3,4-tetrahydroquinolin-2-yl)benzenesulfonamide]",103.5,
"Cc1ccc2c(c1)CCC(c1ccc3c(c1)CCC(=O)N3)N2 (stereo not shown) [Example 101, 6-methyl-1,2,3,3′,4,4′-hexahydro-[2,6′-biquinolin]-2′(1′H)-one]",109.6,
"Cc1ccc2c(c1)CCC(c1ccoc1)N2 (stereo not shown) [Example 102, 2-(furan-3-yl)-6-methyl-1,2,3,4-tetrahydroquinoline]",77.96,
"Cc1ccc2c(c1)CCC(c1cscn1)N2 (stereo not shown) [Example 103, 4-(6-methyl-1,2,3,4-tetrahydroquinolin-2-yl)thiazole]",76.76,
"Cc1ccc2c(c1)CCC(c1cnoc1)N2 (stereo not shown) [Example 104, 4-(6-methyl-1,2,3,4-tetrahydroquinolin-2-yl)isoxazole]",64.65,
"Cc1ccc2c(c1)CCC(c1ccc(C(N)=O)cc1)N2 (stereo not shown) [Example 110, 4-(6-methyl-1,2,3,4-tetra-hydroquinolin-2-yl)benzamide]",,Ferroptosis inhibition rate (%) [4]: 103.0%
"Cc1ccc2c(c1)CCC(c1ccc(C(N)=O)cc1)N2 (stereo not shown) [Example 111, 4-(6-methyl-1,2,3,4-tetrahydroquinolin-2-yl)benzamide]",,Ferroptosis inhibition rate (%) [4]: 98.91%
"Cc1ccc2c(c1)CCC(c1ccc(S(N)(=O)=O)c(F)c1)N2 (stereo not shown) [Example 113, 2-fluoro-4-(6-methyl-1,2,3,4-tetrahydroquinolin-2-yl)benzenesulfonamide]",97.54,
"Cc1ccc2c(c1)CCC(c1ccc(NS(N)(=O)=O)cc1)N2 (stereo not shown) [Example 114, N-(4-(6-methyl-1,2,3,4-tetrahydroquinolin-2-yl)phenyl)sulfamoylamine]",87.04,
"O=C1NCc2cc(C3CCc4ccccc4N3)ccc21 (stereo not shown) [Example 123, 5-(1,2,3,4-tetrahydroquinolin-2-yl)isoindolin-1-one]",113.4,
"O=C1NCc2cc(C3CCc4ccccc4N3)ccc21 (stereo not shown) [Example 124, 5-(1,2,3,4-tetrahydroquinolin-2-yl)isoindolin-1-one]",106.3,
"O=C1CCc2cc(C3CCc4ccccc4N3)ccc2N1 (stereo not shown) [Example 125, 1,2,3,3′,4,4′-hexahydro-[2,6′-biquinolin]-2′(1′H)-one]",102.6,
"O=C1CCc2cc(C3CCc4ccccc4N3)ccc2N1 (stereo not shown) [Example 126, 1,2,3,3′,4,4′-hexahydro-[2,6′-biquinolin]-2′(1′H)-one]",97.29,
